# Results as given in PubChem BioAssay (NCI).
#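 The compound was tested at five concentrations on cells cultured in 96-well plates, with a 48-hour exposure period. GI50 = concentration required for 50% inhibition of growth. TGI is the concentration that stops growth completely.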
# What was measured:
# Test in all cases: inhibition of tumour cell growth, NCI panel, 48 h
# [1] = system: M14 melanoma
# [2] = system: LOX IMVI melanoma
# [3] = system: OVCAR-5 ovarian
# [4] = system: CAKI-1 renal
# [5] = system: NCI/ADR-RES ovarian
# [6] = system: SNB-19 CNS
# [7] = system: A549 NSCLC
# [8] = system: 786-0 renal
# [9] = system: PC-3 prostate
# [10] = system: TK-10 renal
# [11] = system: SF-539 CNS
# [12] = system: CCRF-CEM leukemia
# [13] = system: SF-295 CNS
# [14] = system: SK-MEL-5 melanoma
# [15] = system: A498 renal
# [16] = system: SK-MEL-28 melanoma
# [17] = system: HS 578T breast
# [18] = system: SW-620 colon
# [19] = system: K-562 leukemia
# [20] = system: IGROV1 ovarian
# [21] = system: UACC-257 melanoma
# [22] = system: KM12 colon
# [23] = system: OVCAR-3 ovarian
# [24] = system: MALME-3M melanoma
# [25] = system: MDA-MB-435
# [26] = system: RXF 393 renal
# [27] = system: RPMI-8226 leukemia
# [28] = system: OVCAR-4 ovarian
# [29] = system: MCF7 breast
# [30] = system: SN12C renal
# [31] = system: HCT-15 colon
# [32] = system: SK-MEL-2 melanoma
# [33] = system: COLO 205 colon
# [34] = system: NCI-H23 lung
# [35] = system: OVCAR-8 ovarian
# [36] = system: MDA-MB-231 breast
# [37] = system: NCI-H226 lung
# [38] = system: EKVX NSCLC
# [39] = system: BT-549 breast
# [40] = system: ACHN renal
# [41] = system: NCI-H460 lung
# [42] = system: SNB-75 CNS
# [43] = system: T-47D breast
# [44] = system: HT29 colon
# [45] = system: SK-OV-3 ovarian
# [46] = system: U251 CNS
# [47] = system: HOP-92 NSCLC
# [48] = system: DU-145 prostate
# [49] = system: UO-31 renal
# [50] = system: HL-60(TB) leukemia
# [51] = system: UACC-62 melanoma
# [52] = system: SR leukemia
# [53] = system: HCT-116 colon
# [54] = system: MOLT-4 leukemia
# [55] = system: NCI-H522 lung
# [56] = system: SF-268 CNS
# [57] = system: HCC-2998 colon
# [58] = system: HOP-62 NSCLC
smiles,measurement,setting,value
NC1(C(=O)O)CSSC1,GI50,[1],3.21 µM
same,TGI,[1],11.8 µM
same,GI50,[2],3.24 µM
same,TGI,[2],14.8 µM
same,GI50,[3],33.2 µM
same,TGI,[3],90.1 µM
same,GI50,[4],6.22 µM
same,TGI,[4],40.5 µM
same,GI50,[5],3.46 µM
same,TGI,[5],27.7 µM
same,GI50,[6],3.59 µM
same,TGI,[6],84 µM
same,GI50,[7],3.37 µM
same,TGI,[7],> 100 µM
same,GI50,[8],21.6 µM
same,TGI,[8],> 100 µM
same,GI50,[9],21.5 µM
same,TGI,[9],> 100 µM
same,GI50,[10],3.42 µM
same,TGI,[10],24.3 µM
same,GI50,[11],7.55 µM
same,TGI,[11],> 100 µM
same,GI50,[12],13.2 µM
same,TGI,[12],> 100 µM
same,GI50,[13],2350 nM
same,TGI,[13],8.25 µM
same,GI50,[14],1910 nM
same,TGI,[14],3.68 µM
same,GI50,[15],2530 nM
same,TGI,[15],7.27 µM
same,GI50,[16],3.14 µM
same,TGI,[16],10.7 µM
same,GI50,[17],3.91 µM
same,TGI,[17],> 100 µM
same,GI50,[18],10.4 µM
same,TGI,[18],> 100 µM
same,GI50,[19],3.7 µM
same,TGI,[19],> 100 µM
same,GI50,[20],3.91 µM
same,TGI,[20],29.9 µM
same,GI50,[21],3.85 µM
same,TGI,[21],22.7 µM
same,GI50,[22],11.9 µM
same,TGI,[22],80.9 µM
same,GI50,[23],4.75 µM
same,TGI,[23],59.3 µM
same,GI50,[24],2770 nM
same,TGI,[24],7.12 µM
same,GI50,[25],3.54 µM
same,TGI,[25],13.9 µM
same,GI50,[26],3.13 µM
same,TGI,[26],11.1 µM
same,GI50,[27],16.8 µM
same,TGI,[27],50.8 µM
same,GI50,[28],5.44 µM
same,TGI,[28],46.5 µM
same,GI50,[29],3.65 µM
same,TGI,[29],23.9 µM
same,GI50,[30],3 µM
same,TGI,[30],12.3 µM
same,GI50,[31],3.88 µM
same,TGI,[31],84.7 µM
same,GI50,[32],2660 nM
same,TGI,[32],7.95 µM
same,GI50,[33],11.8 µM
same,TGI,[33],27.1 µM
same,GI50,[34],3.02 µM
same,TGI,[34],14.8 µM
same,GI50,[35],3.6 µM
same,TGI,[35],24.4 µM
same,GI50,[36],17.1 µM
same,TGI,[36],44.3 µM
same,GI50,[37],2700 nM
same,TGI,[37],8.82 µM
same,GI50,[38],4.49 µM
same,TGI,[38],35 µM
same,GI50,[39],4.87 µM
same,TGI,[39],40.2 µM
same,GI50,[40],3.63 µM
same,TGI,[40],14.2 µM
same,GI50,[41],3000 nM
same,TGI,[41],> 100 µM
same,GI50,[42],2910 nM
same,TGI,[42],21.5 µM
same,GI50,[43],32.1 µM
same,TGI,[43],> 100 µM
same,GI50,[44],3.84 µM
same,TGI,[44],31.7 µM
same,GI50,[45],20.3 µM
same,TGI,[45],82.5 µM
same,GI50,[46],3.58 µM
same,TGI,[46],22.6 µM
same,GI50,[47],14.3 µM
same,TGI,[47],68.7 µM
same,GI50,[48],7.63 µM
same,TGI,[48],> 100 µM
same,GI50,[49],3.68 µM
same,TGI,[49],34.4 µM
same,GI50,[50],2820 nM
same,TGI,[50],11.9 µM
same,GI50,[51],4.53 µM
same,TGI,[51],20.1 µM
same,GI50,[52],17.8 µM
same,TGI,[52],> 100 µM
same,GI50,[53],4.53 µM
same,TGI,[53],84.5 µM
same,GI50,[54],5.61 µM
same,TGI,[54],> 100 µM
same,GI50,[55],3.41 µM
same,TGI,[55],17.7 µM
same,GI50,[56],7.6 µM
same,TGI,[56],> 100 µM
same,GI50,[57],16.1 µM
same,TGI,[57],77.5 µM
same,GI50,[58],2920 nM
same,TGI,[58],9.83 µM
